Reference: patent US5674490A, “Antibiotic GE1655 complex and its factors A, B, and C” (Gruppa Lepetit S.p.A., priority 1995, dated 1997)

Tested on: Candida albicans L145
Assay: Candida vaginitis in ovariectomized rats
Assay type: in vivo, ovariectomized female CD rats
Conditions: for Mean log10 cfu ± SD/sample: i.va. twice daily, after 3 days of treatment, GE1655 complex 10, miconazole 4 mg/rat per treat.
Procedure: The in vivo protective activity of the antibiotic GE1655 complex against Candida albicans in ovariectomized female CD rats (weighing 150-170 g, obtained from Charles River 7 days after surgery) was determined. Candida albicans L145 was grown overnight in Sabouraud dextrose broth (Difco) at 30° C. The culture was centrifuged at 6000 r.p.m. for 20 min at 4° C., the yeast was resuspended in nutrient broth N.2 (Oxoid) containing 15% (v/v) glycerol and stored at -80° C. After 7 days of acclimatization in a temperature and humidity controlled room, the animals received 4 mg of estradiol benzoate (Sigma) subcutaneously. Four days later they were infected by intravaginal (i.va.) instillation with 0.025 ml of thawed Candida albicans suspension (about 5×10^6 cfu/rat).
GE1655 complex and miconazole (Sigma) were dissolved in dimethylsulfoxide (DMSO) and then diluted 1:10 with PEG 400; this risulted in homogeneous suspensions. Animals received 0.1 ml of one of these suspensions i.va. twice daily for three days starting 24 h after the infection. Control animals were treated with the vehicle (10% DMSO in PEG 400).
The presence of Candida was determined by inserting a disposable 0.01 ml calibrated loop into the vagina. The sample was resuspended in 0.2 ml of sterile peptonized saline and cultivated on Sabouraud dextrose agar containing 100 mg/l of rifampicin to inhibit growth of bacterial contaminants.

Clc1ccc(COC(Cn2ccnc2)c2ccc(Cl)cc2Cl)c(Cl)c1 (stereo not drawn) [Miconazole, miconazole]
vaginal load compared with the control group (2 experiments, 10 mg of GE1655 complex or 4 mg of miconazole): significantly lower (p<0.01) | Mean log10 cfu ± SD/sample (exp. 1): 1.20 ± 1.01 log10 cfu/sample | Mean log10 cfu ± SD/sample (exp. 2): 1.24 ± 0.86 log10 cfu/sample
